Results from paper PMC3375010, “The TRPV5/6 calcium channels contain multiple calmodulin binding sites with differential binding properties” (Journal of Structural and Functional Genomics, 2012).
“Also recorded” adds a separate entry of the source. Each block holds one substance with its values, some of them ahead of it.

What was measured:
CaM (calmodulin) [1] = molecular target: T1, CaM (calmodulin) (Xenopus laevis, UniProt P0DP33); test: Isothermal titration calorimetry of CaM with peptide; assay type: binding, Xenopus laevis (identical to mammalian); conditions: for K2 (macroscopic binding constant, second event) / K1 (macroscopic binding constant, first event): CaM 15–20 μM in cell; for K1 (macroscopic binding constant, first event): measured at least three times; for ΔS1 / ΔS2: pH 7.0
T1 construct: made in house; host or cells: E. coli AR58 (pTNcoI2 plasmid)
From the text: Peptides corresponding to the amino acid residues 133–154, 310–330, 401–428, 591–612, 696–712 and 696–729 of human TRPV5 and 401–428 and 690–716 of human TRPV6 (cf. Table 1) were purchased from Peptides & elephants GmbH (Potsdam, Germany) and GenicBio Limited (Shanghai, China). All peptides were purified by HPLC (>95% purity) and analyzed by mass-spectrometry. Prior to all experiments, to remove residual TFA, the peptides were dialyzed against an appropriate buffer (dialysis tubing Spectra/Por® 7 with 1 K MWCO; Spectrum Labs, USA).
Expression was induced by a temperature shift from 30 to 42°C and 3–4 h after induction cells were harvested and lysed. Calmodulin was purified by weak anion exchange (DEAE, GE Lifesciences) and affinity chromatography (Phenylsepharose, GE Lifesciences). Purified protein was dialyzed against 1/100 of KCl 50 mM, CaCl2 10 mM, Tris 20 mM pH 7.0, freeze-dried and stored at −20°C. Unless specified differently, all chemicals were obtained from Sigma-Aldrich, USA). Uniformly ^13C and/or ^15N-labelled samples were produced by growing the cells in M9 minimal medium containing 4 g/L ^13C6-glucose and/or 1 g/L ^15N-ammonium chloride (Buchem BV, Apeldoorn, The Netherlands) as the sole source of carbon and/or nitrogen, respectively.
ITC samples were prepared by dissolving CaM and peptides in 50 mM KCl, 10 mM CaCl2, 20 mM Tris pH 7.0 buffer. The concentration of CaM in the cell was 15–20 μM, the concentration of peptides in the syringe exceeded the CaM concentration by 15–20 times. Protein concentrations were determined using a Nanodrop spectrophotometer ND-1000 (Isogen Life Science). ITC experiments were carried out using an ITC200 device (MicroCal Inc., Northampton, MA, USA). After thermal equilibration at 298 K, thirty-nine 1 μl serial injections were performed at 500 rpm stirring speed with an injection spacing of 4 min. To correct the experimental binding isotherm for background heat effects, we also titrated peptide into buffer. All measurements were performed at least three times to determine the optimal experimental conditions with respect to signal-to-noise ratio. In all cases, experiments were consistent and reproducible. ITC data analysis was performed using the Origin 7.0 software supplied by the manufacturer of the ITC. All data were analyzed with “one binding site model” and the “sequential binding site model” implemented in this software package.

CaM (calmodulin) [2] = molecular target: T1, CaM (calmodulin); test: 15N-1H-HSQC NMR titration of 15N-labelled CaM with peptide (with 1D 15N-filtered NMR); assay type: binding, Xenopus laevis (identical to mammalian); conditions: 35°C; for CaM domains involved in binding (overall): V6p1: first and second event, pH 7.0, V5p3: 1:1, pH 5.0; for CaM binding affinity (words, from NMR): 1:0–1:3; for NMR exchange regime of CaM-peptide complex: 15N-1H-HSQC, V5p4, V5p5: CaM buffer pH 7.0, V5p2, V5p2n: H2O with 10 mM 2-mercaptoethanol; for CaM NMR line broadening: CaM:peptide 1:1.5 molar ratio, H2O with 10 mM 2-mercaptoethanol
Protocol: (§1) For the titration by synthetic peptides, ^15N-labeled CaM samples with concentration 0.3–0.7 mM were used. CaM and peptides were dissolved in either KCl 50 mM, CaCl2 10 mM, Tris 20 mM pH 7.0 (V5p1s, V6p1, V5p4, V5p5), or 10 mM CaCl2, 10 mM ammonium acetate buffer pH 5.0 (V5p3 and V6p3), or MilliQ water with 10 mM 2-mercaptoethanol (V5p2 and V5p2n).
(§2) The binding of target peptides to CaM was monitored by 2D ^15N-^1H-HSQC spectra. The combination of 1D ^15N-filtered and 1D ^15N-^1H-HSQC experiments was used to assess the ratio of bound and non-bound peptides. ^15N-T1rho experiments were used to estimate the transverse relaxation rates of the CaM resonances during the titration. For sequential assignment of CaM 3D HNCACB and CBCA(CO)NH experiments were performed.
All spectra were recorded at 308 K on Varian Inova 800 MHz or Bruker Avance III 600 MHz spectrometers, each equipped with a cryogenic probe.
All NMR spectra were processed using the NMRpipe suite and analyzed by the program CcpNmr Analysis.

CaM (calmodulin) [3] = molecular target: T1, CaM (calmodulin); test: Tryptophan fluorescence of the peptide upon titration by CaM; assay type: binding, Xenopus laevis (identical to mammalian); conditions: room temperature; for emission maximum without CaM (start of shift): V6p1 W695: CaM buffer pH 7.0, V5p2 W593: H2O with 2-mercaptoethanol pH 7.0 (Table 1), before CaM addition; for shift of emission maximum upon CaM addition: emission 295–405 nm, peptide:CaM 1:0–1:2; for emission maximum: V5p2, W593
Protocol: Fluorescence measurements were performed using a Varian Cary Eclipse fluorescence spectrophotometer (Agilent Technologies, USA), with emission and excitation slit width set to 5 nm. Tryptophan excitation wavelength was set to 282 nm and emission spectra were recorded in the range 295–405 nm. Each spectrum was recorded three times and averaged. Fluorescence intensity contribution from CaM and background intensity from buffer and cuvettes were subtracted for each spectrum. The recorded emission intensities were corrected for dilution effects. All measurements were carried out at room temperature. CaM and peptides stocks were prepared in 50 mM KCl, 10 mM CaCl2 20 mM Tris pH 7.0 buffer. […] For each titration point, the samples were kept at room temperature for 30 min prior to measurements to ensure that the equilibrium was reached.

[4] = Peptide solubility / aggregation; assay type: physicochemical; conditions: for aggregation / precipitation: aqueous buffer versus water, 2-mercaptoethanol 10 mM tested; for solubility: V5p2: at concentrations desired for NMR, V5p3, V6p3: 10 mM CaCl2, 10 mM ammonium acetate pH 5.0
Protocol: as §1
^15N-^1H-HSQC spectra of the complexes of CaM with V5p2 at molar ratios 1:0 (black), 1:0.75 (red) and 1:1.5 (blue) are presented in Fig. 5a.
The binding patterns observed for CaM in the two complexes were also very similar (supplementary Fig. 4sC). Low pH (5.0) might influence CaM-peptide interactions but we have not studied the effect of pH in details. As both peptides contain neither tryptophan, nor tyrosine residues, fluorescence measurements were not possible using the native peptides.

CaM (calmodulin) [5] = molecular target: T1, CaM (calmodulin); test: 15N-T1rho relaxation of CaM (oligomeric state); parameters: species or system Xenopus laevis (identical to mammalian); conditions: CaM:V5p2 1:1.5 complex
Protocol: as §2
At CaM:V5p2 1:0.75 molar ratio, a significant number of the CaM peaks are doubled and for some peaks substantial line broadening is observed. […] Using the envelope of the well-dispersed, upfield-shifted amide resonances, we obtained T1rho values of ~100 ms for free Ca^2+/CaM which decreased to ~80 ms for CaM in the 1:1.5 complex.

CaM-Sepharose = conditions: ref S. Verkaart, private communication; cited from earlier work
From the text: In our previous work we studied a long version of the C-terminal TRPV5 peptide 1 (V5p1, residues 696–729 in human TRPV5).

[6] = molecular target: Calmodulin (Homo sapiens) (UniProt P0DP23); test: fluorescence anisotropy; conditions: cited from earlier work
[7] = association constant, sequential binding sites model, N fixed to 2, 50 mM KCl, 10 mM CaCl2, 20 mM Tris pH 7.0, 298 K
[8] = sequential binding sites model, N fixed to 2, 298 K
[9] = 15N-1H-HSQC titration, CaM buffer pH 7.0

Substance: ELWRAQVVATTVMLERKLPRSL [V5p2n, V5p2 peptide featuring a C611S mutation]
NMR exchange regime of CaM-peptide complex (CaM (calmodulin) [2]): an intermediate exchange regime is retained
CaM NMR line broadening (CaM (calmodulin) [2]): a significant loss of signal is observed
aggregation / precipitation [4]: Neither of these two conditions appears to alter the observed behavior

Substance: ELWRAQVVATTVMLERKLPRCL [V5p2, C-terminal peptide 2, residues 591–612 of human TRPV5]
CaM NMR line broadening (CaM (calmodulin) [2]): many peaks are significantly broadened, some even beyond detection; also recorded: dramatic line broadening in the CaM NMR spectra
emission maximum (CaM (calmodulin) [3]; CaM:peptide 0.75:1 molar ratio): 337 nm
emission maximum (CaM (calmodulin) [3]; further addition of CaM (beyond 0.75:1)): 312 nm
emission maximum without CaM (start of shift) (CaM (calmodulin) [3]; excitation 282 nm): 350 nm
shift of emission maximum upon CaM addition (CaM (calmodulin) [3]; excitation 282 nm): blue-shift in emission maximum
oligomeric state of CaM in complex (CaM (calmodulin) [5]; from T1rho): (predominantly) monomeric state of CaM
15N-T1rho of CaM (CaM (calmodulin) [5]; upfield-shifted amide resonances, H2O with 10 mM 2-mercaptoethanol): ~ 80 ms
solubility [4]: only soluble in H2O; also recorded: limited solubility; also recorded: soluble in water
aggregation / precipitation [4]: in any buffer other than water precipitate was formed; also recorded: tends to aggregate in aqueous buffer solutions

Substance: GSHRGWEILRQNTLGHL [V5p1s, short TRPV5 C-terminal peptide 1, residues 696–712 of human TRPV5, S696G]
K2 (macroscopic binding constant, second event) (CaM (calmodulin) [1]; [7]): 2.9 (±1.9) × 10^4 M^−1
K1 (macroscopic binding constant, first event) (CaM (calmodulin) [1]; [7]): 9.2 (±4.1) × 10^6 M^−1
ΔS1 (CaM (calmodulin) [1]; [8]): −95.3 cal mol^−1 deg^−1
ΔS2 (CaM (calmodulin) [1]; [8]): −64.1 cal mol^−1 deg^−1
CaM residues/domain involved in first binding event (CaM (calmodulin) [2]; 1:1 CaM:peptide, CaM buffer pH 7.0): C-domain of CaM
CaM residues/domain involved in second binding event (CaM (calmodulin) [2]; 1:2 CaM:peptide, CaM buffer pH 7.0): N-domain of CaM
number of distinct binding events (CaM (calmodulin) [2]; 15N-1H-HSQC at CaM:peptide 1:0, 1:1, 1:2, CaM buffer pH 7.0): two binding events
emission maximum λmax (CaM (calmodulin) [3]; W701, peptide:CaM ratio 1:2, 50 mM KCl, 10 mM CaCl2, 20 mM Tris pH 7.0, excitation 282 nm): ~ 324 nm
shift of emission maximum upon CaM addition (CaM (calmodulin) [3]; excitation 282 nm): clear blue-shift of the emission maximum
effect of C-terminal deletion of 17 amino acids on TRPV5 binding to CaM-Sepharose (CaM-Sepharose): did not affect TRPV5 binding to CaM-Sepharose

Substance: TRPV5 587-616 (from UniProt Q9NQA5)
Kd [6]: 310 nM

More lines, main results first:

K1 (CaM (calmodulin) [1]; association constant, one binding site model, N allowed to vary, 50 mM KCl, 10 mM CaCl2, 20 mM Tris pH 7.0, 298 K): 1.3 (±0.3) × 10^7 M^−1
K2 (macroscopic binding constant, second event) (CaM (calmodulin) [1]; [7]): 5.2 (±1.5) × 10^6 M^−1
K1 (macroscopic binding constant, first event) (CaM (calmodulin) [1]; [7]): 2.2 (±1.7) × 10^6 M^−1
ΔS1 (CaM (calmodulin) [1]; one binding site model, N allowed to vary, 298 K): −27.7 cal mol^−1 deg^−1
ΔS1 (CaM (calmodulin) [1]; [8]): −29.6 cal mol^−1 deg^−1
ΔS2 (CaM (calmodulin) [1]; [8]): −33.0 cal mol^−1 deg^−1
emission maximum upon addition of CaM (CaM (calmodulin) [3]; V6p1, W695, CaM titration up to peptide:CaM 1:2, CaM buffer pH 7.0): 324 nm
emission maximum without CaM (start of shift) (CaM (calmodulin) [3]; excitation 282 nm): 358 nm
shift of emission maximum upon CaM addition (CaM (calmodulin) [3]; excitation 282 nm): blue-shift in emission maximum
Substance: GSSANWERLRQGTLRRDLRGIINRGLE [V6p1, TRPV6 C-terminal peptide 1, residues 690–716 of human TRPV6, R690G]
comparison of the affinities of the two binding events (CaM (calmodulin) [1]; K1 versus K2, sequential binding sites model): indistinguishable macroscopic binding constants; also recorded: nearly identical affinities
CaM domains involved in binding (overall) (CaM (calmodulin) [2]): residues from both domains of CaM are involved in the first and the second binding events; also recorded: involves both domains of CaM to a similar extent

NMR exchange regime of CaM-peptide complex (CaM (calmodulin) [2]): fast exchange on the NMR timescale
shift of emission maximum upon CaM addition (CaM (calmodulin) [3]; excitation 282 nm): blue shift upon addition of calmodulin
Substance: GQTPVKELVSFKWNKYGRPYFS [V5p4, N-terminal peptide 4, residues 310–330 of human TRPV5, C330S]
binding process inferred from curved trajectory of resonances (CaM (calmodulin) [2]; [9]): multiple processes take place during V5p4 binding to CaM
CaM binding affinity (words, from NMR) (CaM (calmodulin) [2]; [9]): relatively weak affinity; also recorded: weak but specific binding to CaM

NMR exchange regime of CaM-peptide complex (CaM (calmodulin) [2]): fast exchange on the NMR timescale
Substance: VRALLTRRASVSARATGTAFRR [V5p5, N-terminal peptide 5, residues 133–154 of human TRPV5]
CaM binding affinity (words, from NMR) (CaM (calmodulin) [2]; [9]): relatively weak affinity; also recorded: weak but specific binding to CaM

solubility [4]: only soluble at pH 5.0
Substance: GLEI PDIFRVGASRYFGKTILGGPFHVI [V5p3, TM23-loop peptide, residues 401–428 of TRPV5, L401G]
CaM domains involved in binding (overall) (CaM (calmodulin) [2]): Residues of both CaM domains were involved in the binding process

solubility [4]: only soluble at pH 5.0
Substance: GVEVPDIFRMGVTRFFGQTILGGPFHVL [V6p3, TM23-loop peptide, residues 401–428 of TRPV6, L401G]
